For orientation: Ki means a dissociation constant, usually derived from enzyme kinetics or from competition with a known ligand.

This is an account of results in EP1593384A2, “Compositions for treatment of sexual dysfunction” (Palatin Technologies, Inc., priority 1999, dated 2005).

One test addresses MC3-R. The note with it: read-out: RELATIVE BINDING (KI) MC3-R; competitive inhibition; transfected HEK 293 cells.
The target in a further test is MC1-R. The note with it: read-out: RELATIVE BINDING (KI) MC1-R; competitive inhibition; B16-F1 melanoma cells as receptor source.
Test [1] relates to Sprague Dawley rats. The test is described as follows: Induced penile erection by intranasal administration (dosing study). In kind it is in vivo. The note with it: for % Rats with Penile Erection / Number of Erections/Rat/30 Minutes: intranasal.
The subject of test [2] is men with psychogenic erectile dysfunction. The note with it: subcutaneous, 0.025 to 0.157 mg/kg body weight; cited from earlier work.
For test [3], the system named is Sprague Dawley rats. The test can be described thus: Induced penile erection by intravenous injection. As to conditions: for dose resulting in (equivalent) penile response: intravenous injection in rats; for efficacious dose, efficacy determined by induction of penile erection in 100% of animals: intravenous injection, rats; for % Rats with Penile Erection / Number of Erections/Rat/30 Minutes: intravenous. It counts as in vivo.

The target in a further test is MC5-R. As to conditions: read-out: RELATIVE BINDING (KI) MC5-R; competitive inhibition; transfected HEK 293 cells.
The subject of the next test is human MC4-R. The test is described as follows: Agonist activity by cAMP detection in transfected HEK 293 cells. It counts as cell-based. The note with it: conclusion from cAMP results.

Procedure for MC1-R: (§1) Relative binding was determined by competitive inhibition using α-MSH. B16-F1 melanoma cells were used as the source of MC1 receptors; HEK 293 cells, transfected with human melanocortin receptor sequences, were used as the source of MC3, MC4 and MC5 receptors; and Y1 cells were used as the source of MC2 receptors.
Procedure for MC3-R: as §1
Procedure for MC5-R: as §1
Procedure for human MC4-R: HEK 293 cells, stably transfected with human MC4-R, were used. […] Following incubation, the medium was aspirated and cell layers extracted. The total cAMP accumulation in fixed quantities of cell extract was determined by competitive immunoassay using the cAMP kit.

As to Melanotan-II, the Ki came to 0.0237 µM at MC3-R, 0.00012 µM on MC1-R and 0.0695 µM on MC5-R. For the same substance, the “% Rats with Penile Erection” value worked out at 25% with Sprague Dawley rats [1] (dose 100 µg/kg), 100% in the test on Sprague Dawley rats [1] (dose 500 µg/kg), 17% in the test on Sprague Dawley rats [3] (dose 10.0 µg/kg) and 75% with Sprague Dawley rats [3] (dose 100.0 µg/kg). Further, the “Number of Erections/Rat/30 Minutes” value in the test on Sprague Dawley rats [1] (dose 100 µg/kg) is listed as 0.25; with Sprague Dawley rats [1] (dose 500 µg/kg), 1.0; in the test on Sprague Dawley rats [3] (dose 10.0 µg/kg), 0.3; in the test with Sprague Dawley rats [3] (dose 100.0 µg/kg), 1.0. In addition, in the test on Sprague Dawley rats [1] (nasal administration, rats, 30 minutes), the “period in which the penile erection response primarily occurred” value is 2nd and 3rd ten-minute period. In addition, the “treated men developing clinically apparent erections” value in test [2] was 8 of 10. Besides, the “dose resulting in (equivalent) penile response” value in the test on Sprague Dawley rats [3] is listed as 100 µg/kg of body weight. Further, in the test with Sprague Dawley rats [3], the “efficacious dose, efficacy determined by induction of penile erection in 100% of animals” value was ≥ 100 µg/kg of body weight.

For “Ac-Nle-cyclo(-Asp-His-D-Phe-Arg-Trp-Lys)-OH [Compound 1]”, the “agonist activity to MC4-R” value in the test on human MC4-R was “exhibits agonist activity”. For the same substance, in the test on Sprague Dawley rats [3], the “dose resulting in (equivalent) penile response” value is 2 µg/kg of body weight and the “efficacious dose, efficacy determined by induction of penile erection in 100% of animals” value is ≥ 1 µg/kg of body weight.
